Results published in publication PMC10625584, “Deciphering triterpenoid saponin biosynthesis by leveraging transcriptome response to methyl jasmonate elicitation in Saponaria vaccaria” (Nature Communications, 2023).

Test system: T1, SvCslG
T1 construct: gene CslG; codon-optimized CDS in pESC-URA; S. cerevisiae INVSc1 microsomal protein
Assay: LC-MS assay with yeast microsomal protein, Michaelis-Menten fit
Type: biochemical, Gypsophila vaccaria
Settings: 20 mM Tris-HCl pH 8.0, 30 mM Mg2+, 30 °C

Km (UDP-GlcA co-substrate) [µM]	Km (quillaic acid co-substrate) [µM]	Compound
3.13	–	CC1(C)CC[C@]2(C(=O)O)[C@H](O)C[C@]3(C)C(=CC[C@@H]4[C@@]5(C)CC[C@H](O)[C@@](C)(C=O)[C@@H]5CC[C@]43C)[C@@H]2C1 [QA, quillaic acid]
–	65	O=C(O)[C@H]1O[C@H](OP(=O)(O)OP(=O)(O)OC[C@H]2O[C@@H](n3ccc(=O)[nH]c3=O)[C@H](O)[C@@H]2O)[C@H](O)[C@@H](O)[C@@H]1O [UDP-GlcA]
